{"source": "patent US12138232B2", "about": "“Compounds for treating coronavirus infection” (priority 2020, dated 2024)", "key": {"[1]": {"settings": "based on literature reports; cited from earlier work"}, "[2]": {"biological_target": "T1, 3CL protease of SARS-coronavirus 2 (Severe acute respiratory syndrome coronavirus 2, UniProt P0DTD1)", "T1 construct": "purchased BPS 79955-1", "assay": "3CL protease fluorescent assay based on commercial kit (BPS cat. 79955-1)", "assay_type": "biochemical", "settings": "for Activity (RFU/minute): mean ± standard deviation, 0 μM: 743.7 ± 20.6", "protocol": "Inhibition of the activity of 3CL protease of SARS-coronavirus 2 (the coronavirus associated with COVID-19) was determined by an assay based on commercial kit (BPS cat. 79955-1). […] The reaction was initiated by addition of 50 μl of 50 μM kit substrate (25 μM final concentration), and then fluorescence was monitored (at 340 nm excitation wavelength, 510 nm emission wavelength) using a CLARIOstar® Plus plate reader (BMG Labtech). The 3CL protease activity was quantified as relative fluorescent units (RFU) per minute."}}}
{"compound": "CC(C)=CCC(O)C1=CC(=O)c2c(O)ccc(O)c2C1=O", "note": "(stereo not drawn) [Shikonin, 5,8-dihydroxy-2-(1-hydroxy-4-methylpent-3-en-1-yl)naphthalene-1,4-dione]", "values": [{"measurement": "dosages at which toxicity is not expected", "setting": "[1]", "result": "less than 8 grams per day"}, {"measurement": "Activity (RFU/minute)", "setting": "[2]; 0.1 μM shikonin", "result": "653.8 ± 28.1", "unit": "RFU/minute"}, {"measurement": "Activity (RFU/minute)", "setting": "[2]; 1 μM shikonin", "result": "680.1 ± 34.3", "unit": "RFU/minute"}, {"measurement": "Activity (RFU/minute)", "setting": "[2]; 10 μM shikonin", "result": "425.0 ± 7.8", "unit": "RFU/minute"}, {"measurement": "inhibition of 3CL protease", "setting": "[2]; 100 μM shikonin", "result": "almost complete inhibition"}, {"measurement": "Activity (RFU/minute)", "setting": "[2]; 100 μM shikonin", "result": "2.9 ± 18.4", "unit": "RFU/minute"}]}
